Test results from PMC6095626, “Screening of the Pathogen Box for inhibitors with dual efficacy against Giardia lamblia and Cryptosporidium parvum” (PLoS Neglected Tropical Diseases, 2018).
Where “and” joins values, the source holds several entries; their conditions need not be identical. Equal entries are not always repeated. Where two headings read alike, the source gives them in different places. Marks after values point to notes of the source that are not given here.

Experiments:
[1] = test system: G. lamblia trophozoites (luciferase expressing, WBC6); test: microbe, parasite or virus in culture; assay type: cell-based, Giardia lamblia; conditions: for EC50: read-out: G. lamblia EC50; for Giardia (16 uM) Mean % inhibition: initial Pathogen Box screen, single concentration 16 µM, inhibition compared to DMSO wells; for inhibition at 16 µM: read-out: Giardia (16 uM) Mean % inhibition
Summary of the method: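 Luciferase-expressing WBC6 trophozoites plated at 250,000 cells/mL, compounds added 1:1, incubated anaerobically (GasPak bags) at 37 °C for 24 h; viability read by bioluminescence, with duplicate plates counted on a MOXI Z cell counter. Metronidazole control serially diluted 1:2 from 40 μM.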

G. lamblia trophozoites = test: G. lamblia growth inhibition counted with MOXI Z Mini Automated Cell Counter; assay type: cell-based; conditions: Giardia duodenalis, 24 h, read-out: G. lamblia EC50 by MOXI coulter counter
Description: Preliminary effective concentration that causes 50% growth inhibition (EC50) assays were performed on the luciferase expressing and wild-type (control) G. lamblia cells to establish a correlation between manually counted cells and the bioluminescent signal read out. Trophozoites were harvested by chilling cultures on ice for 30 minutes and plated by adding 150 μL per well at a concentration of 250,000 cells/mL. Metronidazole (Sigma, St. Louis, MO) was used as a control and was serially diluted 1:2 from 40 μM to 0.04 μM and 150 μL was added to the 150 μL of the G. lamblia trophozoites. Plates were covered in plastic low-evaporation lids, sealed in individual anaerobic BD GasPak Bio-Bags (Becton Dickinson, San Jose, CA) and incubated at 37 °C for 24 hours. Plates were then iced for 30 minutes and 250 μL of resuspended cells were transferred to a solid white 96-well plate and 50 μL of 10 mg/mL D-luciferin was added to a final reaction concentration of 1.67 mg/mL. Plates were incubated on a plate shaker at 37 °C for 30 minutes and read on an EnVision Plate Reader. A duplicate plate was concurrently set up and assayed using a MOXI Z Mini Automated Cell Counter Kit (Orflo, Ketchum, ID). Results obtained from the bioluminescence assay and the MOXI counter data were compared to evaluate their correlation to each another. […]

G. lamblia = conditions: read-out: G. lamblia EC50 (literature), cited from earlier work
[2] = test system: C. parvum (UGA1 Nluc expressing strain in HCT-8 cells); test: microbe, parasite or virus in culture; assay type: cell-based, Cryptosporidium parvum; conditions: for Crypto (10 uM) Mean % inhibition: initial Pathogen Box screen, single concentration 10 µM, inhibition compared to DMSO wells
Summary of the method: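 HCT-8 monolayers grown 48 h to 90–100% confluence, treated with compound at 10 μM or serial dilutions, then infected with bleach-treated UGA1 Nluc C. parvum oocysts.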

HepG2 cells [3] = test: Cytotoxicity against HepG2 cells, AlamarBlue viability assay, 48 hours; assay type: cell-based, human; conditions: read-out: HepG2 CC50 (this study)
From the text: (§1) Mammalian cell cytotoxicity assay data performed on HepG2 (human hepatocellular carcinoma) cells and described as CC20 or CC50 values are provided in supporting documentation that accompanied the Pathogen Box for approximately three quarters of the 400 compounds. However, no details of the assay conditions or parameters were provided. In this study, selected compounds were further tested for cytotoxicity against HepG2 cells as previously described. Briefly, cells were exposed to two-fold serial dilutions of compounds for 48 hours and cytotoxicity was assessed using the AlamarBlue® viability assay (Thermo Fisher Scientific, Waltham, MA). Each dilution was assayed in quadruplicate and concentrations causing 50% growth inhibition (CC50) were calculated by non-linear regression using GraphPad Prism 7 software (GraphPad Software, San Diego, CA).

HepG2 cells [4] = conditions: cited from earlier work; for CC50: read-out: HepG2 CC50 (literature values); for HepG2 CC20 (literature values): CC20 (footnote ^)
[5] = Cytotoxicity against HepG2 cells, AlamarBlue viability assay, 48 hours; assay type: cell-based, human; conditions: human, HepG2 cells, read-out: HepG2 CC50 (this study)
From the text: as §1

C. parvum = conditions: cited from earlier work
[6] = luciferase expressing G. lamblia trophozoites, 24 hours, D-luciferin bioluminescence read-out
[7] = Nluc C. parvum in HCT-8 cells, 48 hours, read-out: C. parvum EC50
[8] = ref Pathogen_Box_Activity_Biological_Data_ Structure & Smiles (https://www.pathogenbox.org/about-pathogen-box/composition)
[9] = Cryptosporidium parvum, HCT-8, 48 h, read-out: C. parvum EC50, Nluc C. parvum in HCT-8 cells, 48 hours
[10] = Cryptosporidium parvum, HCT-8, read-out: Crypto (10 uM) Mean % inhibition

Compound: Cc1ncc([N+](=O)[O-])n1CCO [metronidazole, Metronidazole]
- EC50 ([1]; Giardia duodenalis, 24 h): 2240 nM
- EC50 (G. lamblia trophozoites): 1060 nM
- EC50 (G. lamblia): ~5000 nM
- EC50 (G. lamblia; reference strain WB (48h)): 8650 nM

Compound: O=C(Nc1nnc(-c2ccc(Cl)s2)o1)c1ccc(Cl)s1 [MMV676501]
- Giardia (16 uM) Mean % inhibition [1]: 78%
- EC50 [1, 6]: 1400 ± 200 nM
- EC50 [2, 7]: 4960 ± 1800 nM
- Crypto (10 uM) Mean % inhibition [2]: 93%
- CC50 (HepG2 cells [3]): > 40000 nM
- CC50 (HepG2 cells [4]; [8]): 50100 nM

Compound: COc1cc(-c2cc(-c3ccc(S(C)(=O)=O)cc3)cnc2N)ccc1O [MMV010576]
- Giardia (16 uM) Mean % inhibition [1]: 94%
- EC50 [1, 6]: 1900 ± 280 nM
- EC50 [2, 7]: 3000 nM and 2990 nM
- Crypto (10 uM) Mean % inhibition [2]: 87%
- CC50 (HepG2 cells [3]): > 40000 nM
- CC50 (HepG2 cells [4]; [8]): > 10000 nM

Compound: Oc1c(I)cc(I)c2cccnc12 [MMV002817, Iodoquinol, reference compound]
- EC50 ([1]; Giardia duodenalis, 24 h): 2520 ± 450 nM
- inhibition at 16 µM ([1]; Giardia duodenalis): 82%
- EC50 [2, 9]: 480 ± 200 nM
- inhibition at 10 µM ([2]; Cryptosporidium parvum, HCT-8, 48 h, read-out: C. parvum cell growth inhibition in the initial screen): ≥ 95%
- inhibition at 10 µM [2, 10]: 95%
- CC50 at 48 h [5]: ~40000 nM
- HepG2 CC20 (literature values) (HepG2 cells [4]; [8]): 2.50 ^* ^^ μM

Compound: CC(C)C(Oc1cccc2ccccc12)C(=O)O (stereo not shown) [MMV676191]
- Giardia (16 uM) Mean % inhibition [1]: 9%
- C. parvum cell growth inhibition in the initial screen ([2]; 10 μM, 48 hours): 36%
- EC50 (C. parvum; ref MMV Pathogen_Box_Activity_Biological_Data_Smiles (https://www.pathogenbox.org/about-pathogen-box/composition), read-out: C. parvum EC50 reported in Pathogen Box datasheet): > 10000 nM

Compound: CC(=O)Oc1ccccc1C(=O)Nc1ncc([N+](=O)[O-])s1 [MMV688991, Nitazoxanide, reference compound]
- EC50 ([1]; Giardia duodenalis, 24 h): 800 ± 100 nM
- inhibition at 16 µM ([1]; Giardia duodenalis): 97%
- EC50 [2, 9]: 3100 ± 400 nM
- inhibition at 10 µM [2, 10]: 92%
- CC50 at 48 h [5]: 10700 nM
- HepG2 CC20 (literature values) (HepG2 cells [4]; [8]): 6.35 ^* ^^ μM
- EC50 (G. lamblia; WB strain (48h)): 800 nM
- EC50 (G. lamblia; reference strain WB (48h)): 610 nM

Compound: CC(C)/N=c1\cc2n(-c3ccc(Cl)cc3)c3ccccc3nc-2cc1Nc1ccc(Cl)cc1 [MMV687800, Clofazimine, reference compound]
- EC50 ([1]; Giardia duodenalis, 24 h): 1790 ± 230 nM
- inhibition at 16 µM ([1]; Giardia duodenalis): 98%
- EC50 [2, 9]: 3300 nM
- inhibition at 10 µM [2, 10]: 82%
- EC50 ([2]; read-out: C. parvum EC50, Nluc C. parvum in HCT-8 cells, 48 hours): 3330 ± 1200 nM
- CC50 at 48 h [5]: 26400 nM
- CC50 (HepG2 cells [4]): > 20000 nM
- EC50 (C. parvum; IOWA strain (48h), read-out: C. parvum EC50 (literature)): 15 nM

Compound: CNc1snc(C)c1C(=O)NCCOc1ccc(OC)cc1 [MMV688554]
- Giardia (16 uM) Mean % inhibition [1]: X* (Mean or standard deviation are negative but not significantly different from the control to be a growth promoter)
- Crypto (10 uM) Mean % inhibition [2]: X* (Mean or standard deviation are negative but not significantly different from the control to be a growth promoter)

Compound: CC(C(=O)Nc1ccc2oc(-c3ccncc3)nc2c1)c1ccccc1 (stereo not shown) [MMV688471]
- Giardia (16 uM) Mean % inhibition [1]: 19%
- Crypto (10 uM) Mean % inhibition [2]: X* (Mean or standard deviation are negative but not significantly different from the control to be a growth promoter)

Compound: COc1ccccc1OCCCCn1c(C2CC2)nc2ccccc21 [MMV676474]
- Giardia (16 uM) Mean % inhibition [1]: 3.27%
- Crypto (10 uM) Mean % inhibition [2]: X* (Mean or standard deviation are negative but not significantly different from the control to be a growth promoter)

Compound: O=C1O[C@@H](COc2ccon2)CN1c1cc(F)c(C2=CCN(Cc3ccccc3)CC2)c(F)c1 [MMV687813]
- Giardia (16 uM) Mean % inhibition [1]: 32%
- Crypto (10 uM) Mean % inhibition [2]: 40%

Compound: CC(C)(C)n1nc(-c2ccccc2)c2c(N)ncnc21 [MMV688548]
- Giardia (16 uM) Mean % inhibition [1]: 63%
- Crypto (10 uM) Mean % inhibition [2]: 94%
